Laboratory results taken from patent US11730810B2, “Composition comprising an antigen and a substituted imidazo[1,2-a]pyrimidine for enhancing human immune response” (Children's Medical Center Corporation, priority 2017, dated 2023).

How the values were obtained:
[1] = system: Human adult and elderly PBMCs; experiment: Stimulation of adult and elderly PBMCs, TNF and IL-1β by ELISA; assay type: cell-based
Method: (FIG. 2A) Human adult (top) and elderly (bottom) PBMCs stimulated for 18 hours with the TLR7/8 agonist R848 and 24 confirmed hit compounds from TNF AlphaLISA screen. TNF (left panels) and IL-1β (right panels) were assessed in cell-free supernatants by ELISA. Data are shown as median and interquartile range of N=5.
(§1) ELISAs and Multiplex-Analyte Assays. Supernatants derived from human PBMCs and DC stimulations were assayed by ELISA for TNF (ThermoFisher Scientific; Waltham, Mass., USA). Cytokine and chemokine expression profiles (e.g., IFNγ, IL-10, IL-12 (p70), IL-1β, IL-6, IL-8, MIP-1α/CCL3, TNF and GM-CSF) in cell culture supernatants were measured using a customized 9-plex Milliplex® Human Th17 Magnetic Bead Panel according to the manufacturer's instructions (Millipore, Chicago, Ill., USA). Assays were read and analyzed on the Luminex® 100/200™ System and xPOTENT® software (Luminex, Austin, Tex.). A minimum threshold was set at the minimum detectable concentration for each individual assay, defined as three standard deviations above the mean background.
In vitro PBMC stimulation. PBMCs were isolated from blood using a Ficoll density gradient. PBMCs either used fresh or stored at 5×10^7 cells per vial in 1 mL RPMI containing 20% autologous plasma and 10% DMSO at −80° C. until use. […]

human adult PBMCs [2] = experiment: 9-plex multiplex cytokine assay after stimulation of adult PBMCs; assay type: cell-based; conditions: 0.1 μM-33 μM, 18 hours, 10% autologous plasma, N=4; compared with R848
Method: Shown is a 9-plex multiplex cytokine assay after stimulation of adult peripheral blood mononuclear cells (PBMCs) with compound 037 or R848 at four different concentrations (0.1 μM-33 μM). Radar plots of immune polarizing cytokine production from human adult PBMCs stimulated for 18 hours in 10% autologous plasma, represented as fold-change over RPMI unstimulated control (N=4).
as §1

THP1-Lucia cells = experiment: NF-kB-induced Luminescence Assay in THP1-Lucia cells; assay type: cell-based, human; conditions: in comparison to positive control R848, N=4
Method: (FIG. 5A) Human adult PBMCs were stimulated for 18 hours with the positive control compound R848 or compound 037 and its analogs at 33 μM. Production human TNF was measured in cell-free supernatants by ELISA (N=5). […] Results are shown as the median, the 25th and 75th percentiles (boxes) and the 5th and 95th percentiles (whiskers). **p<0.01 determined by repeated measure one-way ANOVA with Dunnett's multiple comparison test on log-transformed data and comparing each compound with DMSO (control condition).
THP-1 Cell Line and Culture Conditions. The THP1-Lucia™ cell line was obtained from Invivogen (San Diego, Calif.). THP1-Lucia cells, which are human monocytic cells derived from the blood of a child with leukemia, contain an NF-kB-inducible Luc reporter construct. This allows NF-kB activation to be measured by quantifying the luminescence from the secreted luciferase enzyme. THP1-Lucia cells were cultured in RPMI 1640 supplemented with 10% non-heat inactivated fetal bovine serum (FBS), 10 mM HEPES, 1.0 mM sodium pyruvate, 50 ug/ml Pen-Strep, and 100 ug/mL Normocin™. Once cultured, the cells were stored in a 37° C. incubator with 5% CO2 and a humidified atmosphere. […]
NF-kB-induced Luminescence Assay. […] Immediately after adding the substrate, the luminescence was read using a PerkinElmer Envision plate reader.

[3] = system: primary human blood mononuclear cells (PBMC); experiment: TNF AlphaLISA screen on primary human PBMCs; assay type: cell-based; conditions: hit = robust Z score >2 in both duplicates and in at least 2 of 3 donors
Method: To identify immunomodulators/adjuvants that robustly activate human immune cells, ˜200,000 small molecules were tested against THP1 NF-κB reporter cells in a screen. As there is evidence that cell culture lines such as THP-1 cells may not model responses of natural primary human leukocytes, smaller-scale novel high throughput screening methodology was also employed, in which 9,000 commercially available compounds (focusing on small molecule library plates that had relatively high # of hits form the THP-1 screen) were screened using primary human blood mononuclear cells (PBMC) from three different adult human donors (TNFαLISA Assay) (FIGS. 1A-1C).
TNF AlphaLISA screen was comprised of three parts: 1) human peripheral blood collection and PBMC isolation—human adult peripheral blood was collected with written consent. PBMCs were isolated from the blood using Ficoll density gradient. […]
Based on antibody-coated fluorometric excitation/emission beads, the Alpha technology (PerkinElmer) enables the detection and screening of target molecules, in this case TNFα, in a no-wash, highly sensitive, quantitative assay compatible with high throughput screening.
TNFαLISA Assay. […] Viability was assessed by trypan blue staining and cells were then resuspended to 6.67×10^5 viable cells/mL in DMEM with 10% autologous plasma. […]

mouse splenocytes = experiment: Splenocyte in vitro stimulation, murine IL-6 by ELISA; assay type: cell-based, C57BL/6 mice; conditions: 33 μM, 18 hours
human adult PBMCs [4] = experiment: In vitro PBMC stimulation, TNF production by ELISA (Table 1); assay type: cell-based; conditions: 18 hours
Method: (§2) Human adult PBMCs were stimulated for 18 hours with compound 037 and its analogs at 33 μM. Production of human TNF was assessed in cell-free supernatants by ELISA. Results are shown as the median, the 25th and 75th percentiles (boxes) and the 5th and 95th percentiles (whiskers) and expressed as percentage TNF production (TNF %) as compared to R848 (FIG. 6A) or TNF concentration in ng/ml (FIG. 6B) (N=3-5). **p<0.01 determined by repeated measure one-way ANOVA with Dunnett's multiple comparison test on log-transformed data and comparing each compound with DMSO (control condition).
as §2, with “7A)” for “6A)”, “7B) (N=5). Analogs are ranked left to right by TNF % (compound 037 on the far left). Compound 037 analogs have been classified in the following categories according to TNF %: high activity—class A: TNF %>15%; medium activity—class B: 1%<TNF %≤15%; low activity—class C: TNF %≤1%.” for “6B) (N=3-5).”
Table 1 provides the activity of exemplary compounds on stimulating TNF production in PBMCs as compared to the benchmark compound R848. Specifically, TNF production was measured by ELISA after stimulation of adult PBMCs with compound 037 analog family or the compound R848 at 33 μM for 18 hours. […]
ELISAs and Multiplex-Analyte Assays. […] Cytokine and chemokine expression profiles (e.g., IFNγ, IL-10, IL-12 (p70), IL-1β, IL-6, IL-8, MIP-1α/CCL3, TNF and GM-CSF) in cell culture supernatants were measured using a customized 9-plex Milliplex® Human Th17 Magnetic Bead Panel according to the manufacturer's instructions (Millipore, Chicago, Ill., USA). […]

Compound: CCC(C(=O)Nc1cc(-c2cn3cccnc3n2)ccc1C)c1ccccc1 (stereo not drawn) [Compound 37]
- induction of TNF and IL-1β ([1]; adult and elderly PBMCs stimulated for 18 hours, N=5): induce TNF and IL-1β
- potency rank as inducer of innate immune cytokines among 24 confirmed hits ([1]; adult and elderly PBMCs, 18 hours): most potent inducers of innate immune cytokines
- cytokine response (9-plex), fold-change over RPMI unstimulated control (human adult PBMCs [2]): broad concentration-dependent cytokine response
- NF-κB-driven expression of luciferase (THP1-Lucia cells): little activity
- hit in PBMC TNFαLISA screen [3]: identified

Compound: Cc1cnc2nc(-c3ccc(C)c(NC(=O)c4ccccc4C(F)(F)F)c3)cn2c1 [FRF-02-144-3, N-(2-Methyl-5-(6-methylimidazo[1,2-a]pyrimidin-2-yl)phenyl)-2-(trifluoromethyl)benzamide]
- activation of mouse splenocytes (murine IL-6) and human PBMCs (TNF) (mouse splenocytes): activates both human PBMCs and mouse splenocytes

Compound: Cc1ccc(-c2cn3cc(F)cnc3n2)cc1NC(=O)C(c1ccccc1)C(C)C (stereo not drawn) [FRF-03-082, N-(5-(6-Fluoroimidazo[1,2-a]pyrimidin-2-yl)-2-methylphenyl)-3-methyl-2-phenylbutanamide]
- TNF (Median) (human adult PBMCs [4]; 33 μM, ELISA, median of N=3-5, no unit in table (FIGS. 6B/7B express TNF concentration in ng/ml)): 1.008
- Activity class (human adult PBMCs [4]; classified according to TNF % vs R848, 33 μM): A (high activity—class A: TNF % >15%)
- TNF % (Median) (human adult PBMCs [4]; median percentage TNF production as compared to R848, 33 μM): 41.65%
